According to patent US9023789B2, “Amylin analogs and pharmaceutical compositions thereof” (Novo Nordisk A/S, priority 2012, dated 2015):
Converted amounts (≈) assume the structure as drawn. Like-named read-outs stand apart in the source and are kept apart here. Numbered stars: 1 amine (or outer) side, 2 acyl side, 3 side chain; on linkers, the order of the positions; unused ones are H or OH. Bridge positions count the residues as written; N and C are the ends. Side chains are listed from the residue outwards. Peptide text beside a SMILES is read from it. * marks the point of attachment. C20 diacid = O=C(O)CCCCCCCCCCCCCCCCCCC(=O)*; γGlu = O=C(O)[C@H](CCC(=O)[*:2])N[*:1]; AEEA = NCCOCCOCC(=O)O

Columns and labels:
Sprague Dawley (SD) rats = assay: ASSAY (I) efficacy testing on appetite (food intake) using an ad libitum fed rat model; type: in vivo; details: rat
Summary of the method: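 Individual food consumption was logged each hour up to 7 h and again at 24 h, occasionally 48 h, with Grubbs-test outliers removed. Each 200–250 g Sprague Dawley rat, free-feeding in its home cage under reversed lighting, received a single ip, po or sc dose of 0.01–3 mg/kg at lights-off, alongside a vehicle group.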

rat calcitonin receptor = molecular target: T1, rat calcitonin receptor (Rattus norvegicus, UniProt P32214); assay: ASSAY (VIII) binding to the rat calcitonin receptor; details: Table 7, read-out: rCTR bind IC50
T1 construct: expressed in transfected cells; host or cells: BHK tk'ts 13 (transient, FuGENE 6), membranes
T1 sequence (P32214 25-479 isoform P32214-2 limits assumed): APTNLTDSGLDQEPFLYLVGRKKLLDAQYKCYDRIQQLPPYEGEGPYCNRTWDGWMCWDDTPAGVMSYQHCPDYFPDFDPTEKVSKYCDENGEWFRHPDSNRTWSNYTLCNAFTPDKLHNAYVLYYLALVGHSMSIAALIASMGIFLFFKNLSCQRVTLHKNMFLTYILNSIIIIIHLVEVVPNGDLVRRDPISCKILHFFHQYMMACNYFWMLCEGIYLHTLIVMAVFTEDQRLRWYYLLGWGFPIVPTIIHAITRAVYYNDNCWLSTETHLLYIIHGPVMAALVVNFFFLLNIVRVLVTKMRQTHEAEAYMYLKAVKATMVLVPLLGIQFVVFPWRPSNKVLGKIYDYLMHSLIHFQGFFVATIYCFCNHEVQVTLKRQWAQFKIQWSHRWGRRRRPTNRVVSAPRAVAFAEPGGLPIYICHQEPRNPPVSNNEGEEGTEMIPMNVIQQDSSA
Summary of the method: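 Cell membranes for binding came from BHK tk′ts 13 cells harvested approximately 48 hours after transient transfection with the rat receptor.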

[1] = ASSAY (IV) determination of solubility; type: physicochemical
Summary of the method: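 Samples of polypeptide, prepared from a water stock at […] and diluted 1:1 into 100 mM buffers spanning pH 3.0 to 8.0, stood 18 hours at room temperature. Polypeptide concentration was then determined by UPLC following centrifugation.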

[2] = molecular target: T2, human amylin receptor (membranes from Amylin 3(a)/CRE-luc cells) (Homo sapiens, UniProt O60896+P30988); assay: ASSAY (V) binding to the human amylin receptor (SPA, 125I-rat amylin); details: for IC50: Table 4, read-out: hAmylin-R bind IC50;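 for all read-outs here: competition binding of cell membranes (35 ng/µL) mixed with SPA beads in 384-well plates at 40 µL total volume, read by scintillation counting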
T2 construct: expressed in transfected cells
T2 sequence (P30988 25-474): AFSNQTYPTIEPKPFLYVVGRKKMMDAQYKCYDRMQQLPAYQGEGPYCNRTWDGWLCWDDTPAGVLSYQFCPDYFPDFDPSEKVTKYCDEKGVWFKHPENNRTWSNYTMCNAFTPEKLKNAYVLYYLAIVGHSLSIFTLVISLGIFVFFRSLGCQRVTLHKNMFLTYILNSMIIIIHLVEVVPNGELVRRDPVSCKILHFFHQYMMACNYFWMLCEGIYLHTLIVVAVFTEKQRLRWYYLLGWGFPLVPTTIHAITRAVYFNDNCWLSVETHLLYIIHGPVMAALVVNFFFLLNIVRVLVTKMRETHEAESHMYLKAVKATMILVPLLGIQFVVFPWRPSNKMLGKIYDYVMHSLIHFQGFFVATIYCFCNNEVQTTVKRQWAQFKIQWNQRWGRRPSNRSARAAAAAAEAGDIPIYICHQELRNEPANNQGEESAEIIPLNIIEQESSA
T2 sequence (O60896 24-148 partner): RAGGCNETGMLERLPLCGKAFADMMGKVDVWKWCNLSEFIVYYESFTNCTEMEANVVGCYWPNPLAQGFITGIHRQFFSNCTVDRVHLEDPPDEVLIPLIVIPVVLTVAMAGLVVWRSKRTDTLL

[3] = bistrispropane buffer, pH 6.5, read-out: Solubility pH 6.5 Concentration
[4] = bistrispropane buffer, pH 7.5, read-out: Solubility pH 7.5 Concentration
[5] = bistrispropane buffer, pH 6.0, read-out: Solubility pH 6.0 Concentration
[6] = bistrispropane buffer, pH 7.0, read-out: Solubility pH 7.0 Concentration
[7] = bistrispropane buffer, pH 8.0, read-out: Solubility pH 8.0 Concentration
[8] = glycylglycine buffer, pH 3.0, read-out: Solubility pH 3.0 Concentration
[9] = glycylglycine buffer, pH 4.0, read-out: Solubility pH 4.0 Concentration
[10] = glycylglycine buffer, pH 5.0, read-out: Solubility pH 5.0 Concentration
[11] = Table 5, selectivity, hCTR bind IC50 / hAmylin-R bind IC50
[12] = Table 5a, selectivity, hCTR bind IC50 / hAmylin-R bind IC50
[13] = Table 5b, selectivity, hCTR bind IC50 / hAmylin-R bind IC50
[14] = Table 5c, selectivity, hCTR bind IC50 / hAmylin-R bind IC50
[15] = Table 7, human binding selectivity, included for comparison
[16] = Table 7a (preferred compounds), human binding selectivity, included for comparison
[17] = ratio of human calcitonin receptor binding IC50 to human amylin receptor binding IC50

Row | Compound | Food intake reduction 0-24 h 30 nmol/kg (%) (Sprague Dawley (SD) rats; 0-24 h) | Food intake reduction 24-48 h 30 nmol/kg (%) (Sprague Dawley (SD) rats; 24-48 h) | IC50 (rat calcitonin receptor) [nM] | solubility at 18 h [1, 3] [µM] | solubility at 18 h [1, 4] [µM] | solubility at 18 h [1, 5] [µM] | solubility at 18 h [1, 6] [µM] | solubility at 18 h [1, 7] [µM] | solubility at 18 h [1, 8] [µM] | solubility at 18 h [1, 9] [µM] | solubility at 18 h [1, 10] [µM] | IC50 [2] [nM] | Ratio hCT/hAmylin binding [2, 11] | Ratio hCT/hAmylin binding [2, 12] | Ratio hCT/hAmylin binding [2, 13] | Ratio hCT/hAmylin binding [2, 14] | Ratio hCT/hAmylin binding [2, 15] | Ratio hCT/hAmylin binding [2, 16] | Ratio hCT/hAmylin binding [2, 17] | also measured
1 | CC[C@H](C)[C@H](NC(=O)[C@H](C)NC(=O)CNC(=O)[C@H](Cc1ccccc1)NC(=O)[C@H](CC(N)=O)NC(=O)[C@@H]1CCCN1C(=O)[C@H](CO)NC(=O)[C@H](CO)NC(=O)[C@H](Cc1c[nH]cn1)NC(=O)[C@H](CCCNC(=N)N)NC(=O)[C@H](CC(C)C)NC(=O)[C@H](Cc1ccccc1)NC(=O)[C@H](CCCNC(=N)N)NC(=O)[C@H](C)NC(=O)[C@H](CC(C)C)NC(=O)[C@H](CCCNC(=N)N)NC(=O)[C@H](CCC(N)=O)NC(=O)[C@@H](NC(=O)[C@H](C)NC(=O)[C@@H]1CSSC[C@H](NC(=O)[C@@H](N)CCCCNC(=O)COCCOCCNC(=O)CC[C@H](NC(=O)CCCCCCCCCCCCCCCCCCC(=O)O)C(=O)O)C(=O)N[C@@H](CC(N)=O)C(=O)N[C@@H]([C@@H](C)O)C(=O)N[C@@H](C)C(=O)N[C@@H]([C@@H](C)O)C(=O)N1)[C@@H](C)O)C(=O)N1CCC[C@H]1C(=O)N[C@@H](CO)C(=O)N[C@@H](CO)C(=O)N[C@H](C(=O)N1CCC[C@H]1C(=O)N[C@H](C(=O)NCC(=O)N[C@@H](CO)C(=O)N[C@@H](CC(N)=O)C(=O)N[C@H](C(=O)N[C@@H](Cc1ccc(O)cc1)C(N)=O)[C@@H](C)O)C(C)C)[C@@H](C)O [Example 64] (H-K([AEEA-γGlu-C20 diacid])CNTATCATQRLARFLRHSSPNFGAIPSSTPVGSNTY-NH2; disulfide 2-7; N-terminus assumed) | 4 | 3 | 128 | ≥ 200 | ≥ 200 | ≥ 200 | ≥ 200 | ≥ 200 | ≥ 200 | ≥ 200 | ≥ 200 | 0.444 | 126.1 | 126.1 | 126.1 | 126.1 | 126.1 | 126.1 | 126.1 | 
2 | CC[C@H](C)[C@H](NC(=O)[C@H](C)NC(=O)CNC(=O)[C@H](Cc1ccccc1)NC(=O)[C@H](CC(N)=O)NC(=O)[C@@H]1CCCN1C(=O)[C@H](CO)NC(=O)[C@H](CO)NC(=O)[C@H](Cc1c[nH]cn1)NC(=O)[C@H](CCCNC(=N)N)NC(=O)[C@H](CC(C)C)NC(=O)[C@H](Cc1ccccc1)NC(=O)[C@H](CC(N)=O)NC(=O)[C@H](C)NC(=O)[C@H](CC(C)C)NC(=O)[C@H](CCCNC(=N)N)NC(=O)[C@H](CCC(N)=O)NC(=O)[C@@H](NC(=O)[C@H](C)NC(=O)[C@@H]1CSSC[C@H](NC(=O)[C@@H](N)CCCCNC(=O)COCCOCCNC(=O)CC[C@H](NC(=O)CCCCCCCCCCCCCCCCCCC(=O)O)C(=O)O)C(=O)N[C@@H](CC(N)=O)C(=O)N[C@@H]([C@@H](C)O)C(=O)N[C@@H](C)C(=O)N[C@@H]([C@@H](C)O)C(=O)N1)[C@@H](C)O)C(=O)N1CCC[C@H]1C(=O)N[C@@H](CO)C(=O)N[C@@H](CO)C(=O)N[C@H](C(=O)N1CCC[C@H]1C(=O)N[C@H](C(=O)NCC(=O)N[C@@H](CO)C(=O)N[C@@H](Cc1c[nH]cn1)C(=O)N[C@H](C(=O)N[C@@H](Cc1ccc(O)cc1)C(N)=O)[C@@H](C)O)C(C)C)[C@@H](C)O [Example 57] (H-K([AEEA-γGlu-C20 diacid])CNTATCATQRLANFLRHSSPNFGAIPSSTPVGSHTY-NH2; disulfide 2-7; N-terminus assumed) | 62 | 16 | 24.4 | ≥ 200 | 142 (≈ 644 µg/mL) | ≥ 200 | ≥ 200 | 101 (≈ 458 µg/mL) | ≥ 200 | ≥ 200 | ≥ 200 | 0.115 | 133.0 | 133.0 | 133.0 | 133.0 | 133.0 | 133.0 | 133.0 | 
3 | CC[C@H](C)[C@H](NC(=O)[C@H](C)NC(=O)CNC(=O)[C@H](Cc1ccccc1)NC(=O)[C@H](CC(N)=O)NC(=O)[C@@H]1CCCN1C(=O)[C@H](CO)NC(=O)[C@H](CO)NC(=O)[C@H](Cc1c[nH]cn1)NC(=O)[C@H](CCCNC(=N)N)NC(=O)[C@H](CC(C)C)NC(=O)[C@H](Cc1ccccc1)NC(=O)[C@H](CCC(=O)O)NC(=O)[C@H](C)NC(=O)[C@H](CC(C)C)NC(=O)[C@H](CCCNC(=N)N)NC(=O)[C@H](CCC(N)=O)NC(=O)[C@@H](NC(=O)[C@H](C)NC(=O)[C@@H]1CSSC[C@H](NC(=O)[C@@H](N)CCCCNC(=O)CC[C@H](NC(=O)CCCCCCCCCCCCCCCCCCC(=O)O)C(=O)O)C(=O)N[C@@H](CC(N)=O)C(=O)N[C@@H]([C@@H](C)O)C(=O)N[C@@H](C)C(=O)N[C@@H]([C@@H](C)O)C(=O)N1)[C@@H](C)O)C(=O)N1CCC[C@H]1C(=O)N[C@@H](CO)C(=O)N[C@@H](CO)C(=O)N[C@H](C(=O)N[C@@H](CC(N)=O)C(=O)N[C@H](C(=O)NCC(=O)N1CCC[C@H]1C(=O)N[C@@H](CCC(=O)O)C(=O)N[C@H](C(=O)N[C@@H](Cc1ccc(O)cc1)C(N)=O)[C@@H](C)O)C(C)C)[C@@H](C)O [Example 109] (H-K([γGlu-C20 diacid])CNTATCATQRLAEFLRHSSPNFGAIPSSTNVGPETY-NH2; disulfide 2-7 (inferred); N-terminus assumed) | 89 | 91 | 10.4 | ≥ 200 | ≥ 200 | ≥ 200 | ≥ 200 | ≥ 200 | ≥ 200 | ≥ 200 | ≥ 200 |  | 13.3 | 13.3 | 13.3 | 13.3 | 13.3 | 13.3 | 13.3 | Food intake reduction 0-24 h 3 nmol/kg (%) (Sprague Dawley (SD) rats; 3 nmol/kg, 0-24 h): 57%; Food intake reduction 24-48 h 3 nmol/kg (%) (Sprague Dawley (SD) rats; 3 nmol/kg, 24-48 h): 50%
